Results reported in PubChem BioAssay (NCI).
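Results reflect a 48-hour exposure of cells in 96-well plates to compound at five concentrations. TGI marks complete inhibition of growth.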

What was measured:
Test in all cases: DTP human tumour cell line panel, 48 h
A549 NSCLC = system: A549 NSCLC
CCRF-CEM leukemia = system: CCRF-CEM leukemia
HOP-62 NSCLC = system: HOP-62 NSCLC
IGROV1 ovarian = system: IGROV1 ovarian
MDA-MB-435 = system: MDA-MB-435
RPMI-8226 leukemia = system: RPMI-8226 leukemia
SF-539 CNS = system: SF-539 CNS
SK-MEL-5 melanoma = system: SK-MEL-5 melanoma
SR leukemia = system: SR leukemia
SW-620 colon = system: SW-620 colon
U251 CNS = system: U251 CNS
UACC-62 melanoma = system: UACC-62 melanoma

## CCN(CC)c1ccc2cc(-c3csc(C)n3)c(=O)oc2c1
A549 NSCLC
  TGI: > 100 µM
CCRF-CEM leukemia
  TGI: > 100 µM
HOP-62 NSCLC
  TGI: 94.6 µM
IGROV1 ovarian
  TGI: > 100 µM
MDA-MB-435
  TGI: > 100 µM
RPMI-8226 leukemia
  TGI: > 100 µM
SF-539 CNS
  TGI: > 100 µM
SK-MEL-5 melanoma
  TGI: > 100 µM
SR leukemia
  TGI: > 100 µM
SW-620 colon
  TGI: > 100 µM
U251 CNS
  TGI: > 100 µM
UACC-62 melanoma
  TGI: > 100 µM

## CC(=O)c1c2c(cc3c1CC1(C3)Cc3cc4c(c(C(C)=O)c3C1)CCCC4)CCCC2
A549 NSCLC
  TGI: > 100 µM
CCRF-CEM leukemia
  TGI: 44 µM
HOP-62 NSCLC
  TGI: > 100 µM
IGROV1 ovarian
  TGI: > 100 µM
MDA-MB-435
  TGI: > 100 µM
RPMI-8226 leukemia
  TGI: > 100 µM
SF-539 CNS
  TGI: > 100 µM
SK-MEL-5 melanoma
  TGI: 35.4 µM
SR leukemia
  TGI: 53.2 µM
U251 CNS
  TGI: > 100 µM
UACC-62 melanoma
  TGI: > 100 µM

## CNC(=O)OCc1nc(N=[N+]=[N-])n(C)c1COC(=O)NC
A549 NSCLC
  TGI: > 100 µM
CCRF-CEM leukemia
  TGI: > 100 µM
HOP-62 NSCLC
  TGI: > 100 µM
IGROV1 ovarian
  TGI: > 100 µM
MDA-MB-435
  TGI: > 100 µM
RPMI-8226 leukemia
  TGI: > 100 µM
SF-539 CNS
  TGI: > 100 µM
SK-MEL-5 melanoma
  TGI: > 10 µM
SR leukemia
  TGI: 86 µM
SW-620 colon
  TGI: > 100 µM
U251 CNS
  TGI: > 100 µM

## Cc1c(-c2ccccc2)c(C#N)c2nnn(C)c(=O)n12
A549 NSCLC
  TGI: > 100 µM
CCRF-CEM leukemia
  TGI: > 100 µM
HOP-62 NSCLC
  TGI: > 100 µM
IGROV1 ovarian
  TGI: > 100 µM
MDA-MB-435
  TGI: > 100 µM
RPMI-8226 leukemia
  TGI: > 100 µM
SF-539 CNS
  TGI: > 100 µM
SK-MEL-5 melanoma
  TGI: > 100 µM
SR leukemia
  TGI: > 100 µM
SW-620 colon
  TGI: > 100 µM
U251 CNS
  TGI: > 100 µM
UACC-62 melanoma
  TGI: > 100 µM

## COc1cc(OC)c2nc(C)c3c(c2c1)OCC3
A549 NSCLC
  TGI: > 100 µM
CCRF-CEM leukemia
  TGI: > 100 µM
HOP-62 NSCLC
  TGI: > 100 µM
IGROV1 ovarian
  TGI: > 100 µM
MDA-MB-435
  TGI: > 100 µM
RPMI-8226 leukemia
  TGI: > 100 µM
SF-539 CNS
  TGI: > 100 µM
SK-MEL-5 melanoma
  TGI: > 100 µM
SR leukemia
  TGI: > 100 µM
SW-620 colon
  TGI: > 100 µM
U251 CNS
  TGI: > 100 µM
UACC-62 melanoma
  TGI: > 100 µM

## O=C(/N=C1/OC(CN2CCOCC2)CN1C(=O)Nc1ccccc1)Nc1ccccc1 (stereo unspecified)
A549 NSCLC
  TGI: > 100 µM
CCRF-CEM leukemia
  TGI: > 100 µM
HOP-62 NSCLC
  TGI: > 100 µM
IGROV1 ovarian
  TGI: > 100 µM
MDA-MB-435
  TGI: > 100 µM
RPMI-8226 leukemia
  TGI: > 100 µM
SK-MEL-5 melanoma
  TGI: > 100 µM
SR leukemia
  TGI: > 100 µM
SW-620 colon
  TGI: > 100 µM
U251 CNS
  TGI: > 100 µM
UACC-62 melanoma
  TGI: > 100 µM

## CC1(C)N([O-])[N+](=O)C1(Br)c1ccccc1 (stereo unspecified)
A549 NSCLC
  TGI: > 100 µM
CCRF-CEM leukemia
  TGI: > 100 µM
HOP-62 NSCLC
  TGI: > 100 µM
IGROV1 ovarian
  TGI: > 100 µM
MDA-MB-435
  TGI: > 100 µM
RPMI-8226 leukemia
  TGI: > 100 µM
SF-539 CNS
  TGI: > 100 µM
SK-MEL-5 melanoma
  TGI: > 100 µM
SR leukemia
  TGI: > 100 µM
SW-620 colon
  TGI: > 100 µM
U251 CNS
  TGI: > 100 µM
UACC-62 melanoma
  TGI: > 100 µM

## CC1CN=C(NS(=O)(=O)c2cc(C(=O)Nc3ccccc3)c(Cl)cc2S)NN1 (stereo unspecified)
A549 NSCLC
  TGI: > 100 µM
CCRF-CEM leukemia
  TGI: > 100 µM
HOP-62 NSCLC
  TGI: > 100 µM
IGROV1 ovarian
  TGI: 83.3 µM
MDA-MB-435
  TGI: 52.5 µM
RPMI-8226 leukemia
  TGI: > 100 µM
SF-539 CNS
  TGI: > 100 µM
SK-MEL-5 melanoma
  TGI: > 100 µM
SR leukemia
  TGI: > 100 µM
SW-620 colon
  TGI: > 100 µM
U251 CNS
  TGI: > 100 µM
UACC-62 melanoma
  TGI: > 100 µM

## COC(=O)/C=C1/OC(c2ccc(C)cc2C)=CC1=O
CCRF-CEM leukemia
  TGI: > 100 µM
HOP-62 NSCLC
  TGI: 61.2 µM
IGROV1 ovarian
  TGI: 22 µM
MDA-MB-435
  TGI: 30.1 µM
RPMI-8226 leukemia
  TGI: > 100 µM
SF-539 CNS
  TGI: 33 µM
SK-MEL-5 melanoma
  TGI: 38.2 µM
SR leukemia
  TGI: > 100 µM
SW-620 colon
  TGI: 10.4 µM
U251 CNS
  TGI: 31.1 µM
UACC-62 melanoma
  TGI: 26.5 µM

## Cc1ccc(/C=C2\CCCCCC2=O)cc1
A549 NSCLC
  TGI: > 100 µM
CCRF-CEM leukemia
  TGI: > 100 µM
HOP-62 NSCLC
  TGI: > 100 µM
IGROV1 ovarian
  TGI: > 100 µM
MDA-MB-435
  TGI: > 100 µM
RPMI-8226 leukemia
  TGI: > 100 µM
SK-MEL-5 melanoma
  TGI: > 100 µM
SR leukemia
  TGI: > 100 µM
SW-620 colon
  TGI: > 100 µM
U251 CNS
  TGI: > 100 µM
UACC-62 melanoma
  TGI: > 100 µM

## Cc1ccc(C2=Nn3c(nc4sc5c(c4c3=O)CCCC5)SC2)cc1
A549 NSCLC
  TGI: > 100 µM
CCRF-CEM leukemia
  TGI: > 100 µM
HOP-62 NSCLC
  TGI: > 100 µM
IGROV1 ovarian
  TGI: > 100 µM
MDA-MB-435
  TGI: > 100 µM
RPMI-8226 leukemia
  TGI: > 100 µM
SF-539 CNS
  TGI: > 100 µM
SK-MEL-5 melanoma
  TGI: > 100 µM
SR leukemia
  TGI: > 100 µM
SW-620 colon
  TGI: > 100 µM
U251 CNS
  TGI: > 100 µM
UACC-62 melanoma
  TGI: > 100 µM

## CCC1(CC)C(=O)NN(C(=O)c2ccc(Cl)cc2)C1=O
A549 NSCLC
  TGI: > 100 µM
CCRF-CEM leukemia
  TGI: > 100 µM
HOP-62 NSCLC
  TGI: > 100 µM
IGROV1 ovarian
  TGI: > 100 µM
MDA-MB-435
  TGI: > 100 µM
RPMI-8226 leukemia
  TGI: > 100 µM
SK-MEL-5 melanoma
  TGI: > 100 µM
SR leukemia
  TGI: > 100 µM
SW-620 colon
  TGI: > 100 µM
U251 CNS
  TGI: > 100 µM
UACC-62 melanoma
  TGI: > 100 µM

## N/N=C(/CC(O)(C(F)(F)F)C(F)(F)F)c1ccccc1
A549 NSCLC
  TGI: > 10 µM
CCRF-CEM leukemia
  TGI: > 10 µM
HOP-62 NSCLC
  TGI: > 10 µM
IGROV1 ovarian
  TGI: > 10 µM
MDA-MB-435
  TGI: > 10 µM
RPMI-8226 leukemia
  TGI: > 10 µM
SF-539 CNS
  TGI: > 10 µM
SK-MEL-5 melanoma
  TGI: > 10 µM
SR leukemia
  TGI: > 10 µM
SW-620 colon
  TGI: > 10 µM
U251 CNS
  TGI: > 10 µM
UACC-62 melanoma
  TGI: > 10 µM

## C=C(C)CCN(C(=O)OC(C)(C)C)c1cc(C(C)C)co1
A549 NSCLC
  TGI: > 100 µM
CCRF-CEM leukemia
  TGI: > 100 µM
HOP-62 NSCLC
  TGI: > 100 µM
IGROV1 ovarian
  TGI: > 100 µM
MDA-MB-435
  TGI: > 100 µM
RPMI-8226 leukemia
  TGI: 57.3 µM
SF-539 CNS
  TGI: > 100 µM
SK-MEL-5 melanoma
  TGI: > 100 µM
SR leukemia
  TGI: > 100 µM
SW-620 colon
  TGI: > 100 µM
U251 CNS
  TGI: > 100 µM
UACC-62 melanoma
  TGI: > 100 µM

## COc1cc(/C=C2\CC(C)C/C(=C\c3ccc(O)c(OC)c3)C2=O)ccc1O (stereo unspecified)
A549 NSCLC
  TGI: 17.8 µM
CCRF-CEM leukemia
  TGI: > 45 µM
HOP-62 NSCLC
  TGI: 9.11 µM
IGROV1 ovarian
  TGI: 5.88 µM
MDA-MB-435
  TGI: 6.21 µM
RPMI-8226 leukemia
  TGI: > 100 µM
SF-539 CNS
  TGI: > 23.7 µM
SK-MEL-5 melanoma
  TGI: 4.52 µM
SR leukemia
  TGI: > 25.5 µM
SW-620 colon
  TGI: 5.41 µM
U251 CNS
  TGI: 5.59 µM
UACC-62 melanoma
  TGI: 4.01 µM

## CC(C)(C)OC(=O)NC(Cc1ccc(OCc2ccccc2)cn1)C(N)=O (stereo unspecified)
A549 NSCLC
  TGI: > 100 µM
CCRF-CEM leukemia
  TGI: > 100 µM
HOP-62 NSCLC
  TGI: > 100 µM
IGROV1 ovarian
  TGI: > 100 µM
MDA-MB-435
  TGI: > 100 µM
RPMI-8226 leukemia
  TGI: > 100 µM
SF-539 CNS
  TGI: > 100 µM
SK-MEL-5 melanoma
  TGI: 94.2 µM
SR leukemia
  TGI: > 100 µM
SW-620 colon
  TGI: > 100 µM
U251 CNS
  TGI: > 100 µM

## COc1ccc(C(c2cc(OC)c(OC)c(OC)c2)N2C(=O)CCC2C(=O)O)cc1 (stereo unspecified)
A549 NSCLC
  TGI: > 100 µM
CCRF-CEM leukemia
  TGI: > 100 µM
HOP-62 NSCLC
  TGI: > 100 µM
IGROV1 ovarian
  TGI: > 100 µM
MDA-MB-435
  TGI: 48.6 µM
RPMI-8226 leukemia
  TGI: > 100 µM
SF-539 CNS
  TGI: 52 µM
SK-MEL-5 melanoma
  TGI: > 100 µM
SR leukemia
  TGI: > 100 µM
SW-620 colon
  TGI: > 100 µM
U251 CNS
  TGI: > 100 µM
UACC-62 melanoma
  TGI: > 100 µM

## CC1=NN(C(=O)CC(=O)Nc2ccc(Cl)cc2)C(=O)C1N=Nc1ccc(S(=O)(=O)c2ccc(N=NC3C(=O)N(C(=O)CC(=O)Nc4ccc(Cl)cc4)N=C3C)cc2)cc1 (stereo unspecified)
A549 NSCLC
  TGI: > 100 µM
CCRF-CEM leukemia
  TGI: > 100 µM
HOP-62 NSCLC
  TGI: > 100 µM
IGROV1 ovarian
  TGI: > 100 µM
MDA-MB-435
  TGI: > 100 µM
RPMI-8226 leukemia
  TGI: > 100 µM
SF-539 CNS
  TGI: > 100 µM
SK-MEL-5 melanoma
  TGI: > 100 µM
SR leukemia
  TGI: > 100 µM
SW-620 colon
  TGI: > 100 µM
U251 CNS
  TGI: 59.6 µM
UACC-62 melanoma
  TGI: > 100 µM

## O=[N+]([O-])c1cc2ccc1OCc1cccc(n1)COc1ccc(cc1[N+](=O)[O-])C=NCCCCCCCCN=C2
A549 NSCLC
  TGI: > 100 µM
CCRF-CEM leukemia
  TGI: > 100 µM
HOP-62 NSCLC
  TGI: > 100 µM
IGROV1 ovarian
  TGI: > 100 µM
MDA-MB-435
  TGI: > 100 µM
RPMI-8226 leukemia
  TGI: > 100 µM
SF-539 CNS
  TGI: > 100 µM
SK-MEL-5 melanoma
  TGI: > 100 µM
SR leukemia
  TGI: > 100 µM
SW-620 colon
  TGI: > 100 µM
U251 CNS
  TGI: > 100 µM
UACC-62 melanoma
  TGI: > 100 µM
